Assay results reported in US20240317723A1, “SUBSTITUTED AMINO AZA-HETEROARYL COMPOUNDS AS INHIBITORS OF THE HAEMATOPOIETIC PROGENITOR KINASE 1 (HPK1)” (priority 2021, published 2024).

Key:
Lck (h) = Lck (h) (Homo sapiens, UniProt P06239); assay: Lck Human STE Kinase Enzymatic Radiometric Assay; type: biochemical; settings: for Selectivity: selectivity for inhibition of HPK1 vs Lck; for IC50: radiometric, [gamma-33P]-ATP, Cdc2 peptide substrate, read-out: Lck IC50, nM Range*
Method: (b) Lck Human STE Kinase Enzymatic Radiometric Assay
Lck (h) is incubated with 50 mM Tris pH 7.5, 0.1 mM EGTA, 0.1 mM Na3VO4, 250 uM KVEKIGEGTYGVVYK (Cdc2 peptide), 10 mM MgAcetate and [gamma-33P]-ATP (specific activity and concentration as required). The reaction is initiated by the addition of the Mg/ATP mix. After incubation for 40 minutes at room temperature, the reaction is stopped by the addition of phosphoric acid to a concentration of 0.5%. 10 uL of the reaction is then spotted onto a P30 filtermat and washed four times for 4 minutes in 0.425% phosphoric acid and once in methanol prior to drying and scintillation counting. For more details on the kinase assay procedures see: Gao, Y. et. al.; Biochem J., 451 (2): 313-328, 2013.
In some embodiments the presence of substituents on monocyclic Cy^2 rings or when Cy^2 is a bicyclic ring (unsubstituted or substituted) provides compounds with improved selectivity for inhibition of HPK1 vs Lck (see, for example, Table 3 and Table 4).

[1] = target: T1, Recombinant (1-346) HPK1 (h) (Homo sapiens, UniProt Q92918); assay: HPK1 Human STE Kinase Enzymatic Radiometric Assay; type: biochemical; settings: [gamma-33P]-ATP, myelin basic protein substrate, read-out: HPK1 IC50 nM Range*
T1 construct: Recombinant (1-346) HPK1 (h) is incubated with 8 mM MOPS pH 7.0
T1 sequence (Q92918 1-346): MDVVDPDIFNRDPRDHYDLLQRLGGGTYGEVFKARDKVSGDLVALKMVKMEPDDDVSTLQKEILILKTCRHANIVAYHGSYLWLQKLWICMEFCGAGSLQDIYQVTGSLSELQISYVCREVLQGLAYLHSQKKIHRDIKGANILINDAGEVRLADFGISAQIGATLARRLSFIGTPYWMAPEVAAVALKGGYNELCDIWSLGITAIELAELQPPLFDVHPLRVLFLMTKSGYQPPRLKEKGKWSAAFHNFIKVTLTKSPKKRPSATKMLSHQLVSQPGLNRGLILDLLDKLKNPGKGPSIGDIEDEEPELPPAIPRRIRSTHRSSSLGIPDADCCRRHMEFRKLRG
Method: (a) HPK1 Human STE Kinase Enzymatic Radiometric Assay
A stock solution of 10 mM of test compound is prepared in DMSO. The compound plate was prepared by 3-fold and 9-point serial dilutions. Recombinant (1-346) HPK1 (h) is incubated with 8 mM MOPS pH 7.0, 0.2 mM EDTA, 0.33 mg/mL myelin basic protein, 10 mM MgAcetate and [gamma-33P]-ATP (specific activity and concentration as required). The reaction is initiated by the addition of the Mg/ATP mix. After incubation for 40 minutes at RT, the reaction is stopped by the addition of phosphoric acid to a concentration of 0.5%. 10 uL of the reaction is then spotted onto a P30 filtermat and washed four times for 4 minutes in 0.425% phosphoric acid and once in methanol prior to drying and scintillation counting. For more details of kinase assay protocols, see: Gao, Y. et. al.; Biochem J. 451 (2): 313-328, 2013.

Sequence of Lck (h) (P06239 whole entry): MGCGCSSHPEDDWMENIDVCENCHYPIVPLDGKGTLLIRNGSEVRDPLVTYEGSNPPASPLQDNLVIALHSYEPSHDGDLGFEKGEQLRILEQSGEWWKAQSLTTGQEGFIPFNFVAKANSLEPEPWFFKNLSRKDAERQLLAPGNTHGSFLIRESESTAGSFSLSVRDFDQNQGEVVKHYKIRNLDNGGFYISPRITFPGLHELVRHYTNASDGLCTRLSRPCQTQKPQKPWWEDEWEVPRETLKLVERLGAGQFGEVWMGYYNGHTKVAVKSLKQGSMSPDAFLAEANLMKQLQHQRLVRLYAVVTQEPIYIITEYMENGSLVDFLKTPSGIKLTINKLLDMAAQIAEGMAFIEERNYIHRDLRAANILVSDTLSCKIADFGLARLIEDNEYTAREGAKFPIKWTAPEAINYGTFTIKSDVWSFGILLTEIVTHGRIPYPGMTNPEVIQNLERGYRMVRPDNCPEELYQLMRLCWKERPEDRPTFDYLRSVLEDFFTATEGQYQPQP

SMILES	Selectivity (Lck (h))	IC50 [1] [nM]	IC50 (Lck (h)) [nM]
Nc1ncc(-c2ccc(N3CCOCC3)cc2)nc1-c1ccc2c(c1)CCNC2=O [Comparator 1, 6-(3-amino-6-(4-morpholinophenyl)pyrazin-2-yl)-3,4-dihydroisoquinolin-1(2H)-one, reference compound]	31		
Nc1ncc(-c2ccc(N3CCOCC3)c(F)c2F)nc1-c1ccc2c(c1)CCNC2=O [Comparator 2, 6-(3-amino-6-(2,3-difluoro-4-morpholinophenyl)pyrazin-2-yl)-3,4-dihydroisoquinolin-1(2H)-one, reference compound]	930		
Nc1ncc(-c2ccc(N3CCOCC3)cc2F)nc1-c1ccc2c(c1)CCNC2=O [Comparator 4, 6-(3-amino-6-(2-fluoro-4-morpholinophenyl)pyrazin-2-yl)-3,4-dihydroisoquinolin-1(2H)-one, reference compound]	405		
CN1CCN(c2ccc(-c3cc(-c4ccc5c(c4)CCNC5=O)c(N)nn3)cc2)CC1 [Example I-49, 6-(3-amino-6-(4-(4-methylpiperazin-1-yl)phenyl)pyridazin-4-yl)-3,4-dihydroisoquinolin-1(2H)-one]		21 to 200	
C[C@@H]1CN(C)CCN1c1ccc(-c2cnc(N)c(-c3ccc4c(c3)CCNC4=O)n2)cc1 [Example I-54, (R)-6-(3-amino-6-(4-(2,4-dimethylpiperazin-1-yl)phenyl)pyrazin-2-yl)-3,4-dihydroisoquinolin-1(2H)-one]		0.1 to 5	
C[C@@H]1CN(c2ccc(-c3cnc(N)c(-c4ccc5c(c4)CCNC5=O)n3)cc2)C[C@H](C)N1C [Example I-55, 6-(3-amino-6-(4-((3R,5S)-3,4,5-trimethylpiperazin-1-yl)phenyl)pyrazin-2-yl)-3,4-dihydroisoquinolin-1(2H)-one]		0.1 to 5	
CCN1CCN(c2ccc(-c3cnc(N)c(-c4ccc5c(c4)CCNC5=O)n3)cc2)CC1 [Example I-56, 6-(3-amino-6-(4-(4-ethylpiperazin-1-yl)phenyl)pyrazin-2-yl)-3,4-dihydroisoquinolin-1(2H)_-one]		0.1 to 5	
Cc1nc2cc(-c3nc(-c4ccc(N5CCN(C)CC5)cc4)cnc3N)ccc2c(=O)[nH]1 [Example I-57, 7-(3-amino-6-(4-(4-methylpiperazin-1-yl)phenyl)pyrazin-2-yl)-2-methylquinazolin-4(3H)-one]		6 to 10	
CN(C)Cc1cc(C2CCOCC2)ccc1-c1cnc(N)c(-c2cc3c(cc2F)C(=O)NCC3)n1 [II-1, 6-(3-amino-6-(2-((dimethylamino)methyl)-4-(tetrahydro-2H-pyran-4-yl)phenyl)pyrazin-2-yl)-7-fluoro-3,4-dihydroisoquinolin-1(2H)-one]		6 to 10	
Cc1c[nH]c(=O)c2cc(F)c(-c3nc(-c4ccc(C5CCOCC5)c(CN(C)C)c4)cnc3N)cc12 [II-2, 6-(3-amino-6-(3-((dimethylamino)methyl)-4-(tetrahydro-2H-pyran-4-yl)phenyl)pyrazin-2-yl)-7-fluoro-4-methylisoquinolin-1(2H)-one]		0.1 to 5	
Cc1cc2cc(-c3nc(-c4ccc(C5CCOCC5)c(CN(C)C)c4)cnc3N)cc(F)c2c(=O)[nH]1 [II-4, 6-(3-amino-6-(3-((dimethylamino)methyl)-4-(tetrahydro-2H-pyran-4-yl)phenyl)pyrazin-2-yl)-8-fluoro-3-methylisoquinolin-1(2H)-one]		0.1 to 5	
Cc1[nH]c(=O)c2c(F)cc(-c3nc(-c4ccc(C5CCOCC5)c(CN(C)C)c4)cnc3N)cc2c1F [II-5, 6-(3-amino-6-(3-((dimethylamino)methyl)-4-(tetrahydro-2H-pyran-4-yl)phenyl)pyrazin-2-yl)-4,8-difluoro-3-methylisoquinolin-1(2H)-one]		0.1 to 5	

Further lines, results first:

Selectivity (Lck (h))	IC50 [1] [nM]	IC50 (Lck (h)) [nM]	SMILES
	0.1 to 5	6 to 10	CN1CCN(c2ccc(-c3cnc(N)c(-c4ccc5c(c4)CCNC5=O)n3)cc2)CC1 [Example I-1, 6-(3-amino-6-(4-(4-methylpiperazin-1-yl)phenyl)pyrazin-2-yl)-3,4-dihydroisoquinolin-1(2H)-one]
	0.1 to 5	6 to 10	CN1CCN(c2ccc(-c3cnc(N)c(-c4ccc5c(c4)C(C)(C)NC5=O)n3)cc2)CC1 [Example I-2, 5-(3-amino-6-(4-(4-methylpiperazin-1-yl)phenyl)pyrazin-2-yl)-3,3-dimethylisoindolin-1-one]
	0.1 to 5	6 to 10	CC(C)N1CCN(c2ccc(-c3cnc(N)c(-c4ccc5c(c4)CCNC5=O)n3)cc2)CC1 [Example I-3, 6-(3-amino-6-(4-(4-isopropylpiperazin-1-yl)phenyl)pyrazin-2-yl)-3,4-dihydroisoquinolin-1(2H)-one]
	0.1 to 5	6 to 10	CN1CCN(c2ccc(-c3cnc(N)c(-c4ccc5c(c4)CCNC5=O)n3)cc2F)CC1 [Example I-4, 6-(3-amino-6-(3-fluoro-4-(4-methylpiperazin-1-yl)phenyl)pyrazin-2-yl)-3,4-dihydroisoquinolin-1(2H)-one]
	0.1 to 5	6 to 10	CN1CCN(c2ccc(-c3cnc(N)c(-c4cc(F)c5c(c4)CCNC5=O)n3)cc2)CC1 [Example I-5, 6-(3-amino-6-(4-(4-methylpiperazin-1-yl)phenyl)pyrazin-2-yl)-8-fluoro-3,4-dihydroisoquinolin-1(2H)-one]
	0.1 to 5	11 to 20	Nc1ncc(-c2ccc(N3CCC(O)CC3)cc2)nc1-c1ccc2c(c1)CCNC2=O [Example I-6, 6-(3-amino-6-(4-(4-hydroxypiperidin-1-yl)phenyl)pyrazin-2-yl)-3,4-dihydroisoquinolin-1(2H)-one]
	0.1 to 5	11 to 20	CC(C)[C@@H]1CN(c2ccc(-c3cnc(N)c(-c4ccc5c(c4)CCNC5=O)n3)cc2)CCO1 [Example I-7, (R)-6-(3-amino-6-(4-(2-isopropylmorpholino)phenyl)pyrazin-2-yl)-3,4-dihydroisoquinolin-1(2H)-one]
170	0.1 to 5	11 to 20	CC(C)[C@H]1CN(c2ccc(-c3cnc(N)c(-c4ccc5c(c4)CCNC5=O)n3)cc2)CCO1 [Example I-8, (S)-6-(3-amino-6-(4-(2-isopropylmorpholino)phenyl)pyrazin-2-yl)-3,4-dihydroisoquinolin-1(2H)-one]
	0.1 to 5	11 to 20	CN([C@H]1CCN(c2ccc(-c3cnc(N)c(-c4ccc5c(c4)CCNC5=O)n3)cc2)C1)S(C)(=O)=O [Example I-10, (S)-N-(1-(4-(5-amino-6-(1-oxo-1,2,3,4-tetrahydroisoquinolin-6-yl)pyrazin-2-yl)phenyl)pyrrolidin-3-yl)-N-methylmethanesulfonamide]
170	0.1 to 5	11 to 20	C[C@@H]1COCCN1c1ccc(-c2cnc(N)c(-c3ccc4c(c3)CCNC4=O)n2)cc1 [Example I-11, (R)-6-(3-amino-6-(4-(3-methylmorpholino)phenyl)pyrazin-2-yl)-3,4-dihydroisoquinolin-1(2H)-one]
	0.1 to 5	11 to 20	CN1CCN(c2ccc(-c3cnc(N)c(-c4cc5c(cc4F)C(=O)NCC5)n3)cc2)CC1 [Example I-12, 6-(3-amino-6-(4-(4-methylpiperazin-1-yl)phenyl)pyrazin-2-yl)-7-fluoro-3,4-dihydroisoquinolin-1(2H)-one]
2740	0.1 to 5	21 to 200	CC(C)[C@@H]1CN(c2ccc(-c3cnc(N)c(-c4ccc5c(c4)CCNC5=O)n3)c(F)c2)CCO1 [Example I-13, (R)-6-(3-amino-6-(2-fluoro-4-(2-isopropylmorpholino)phenyl)pyrazin-2-yl)-3,4-dihydroisoquinolin-1(2H)-one]
	0.1 to 5		Cc1cc2cc(-c3nc(-c4ccc(N5CCN(C)CC5)cc4)cnc3N)ccc2c(=O)[nH]1 [Example I-51, 6-(3-amino-6-(4-(4-methylpiperazin-1-yl)phenyl)pyrazin-2-yl)-3-methylisoquinolin-1(2H)-one]
	0.1 to 5		CC(C)N1CCN(c2ccc(-c3cnc(N)c(-c4ccc5c(c4)CCNC5=O)n3)cc2)[C@H](C)C1 [Example I-53, (R)-6-(3-amino-6-(4-(4-isopropyl-2-methylpiperazin-1-yl)phenyl)pyrazin-2-yl)-3,4-dihydroisoquinolin-1(2H)-one]
